Measured values taken from a melting point compilation (Tetko et al.; mined from patent text by program, amines drawn as free bases though some values may be those of a salt).

Point of comparison: `OC1(c2cncc(Br)c2)CCCC1`, melting point 74 °C. Against it:
- COC(Cc1ccc(OCCc2nc(C(C)(C)C)oc2C)c2ccccc12)C(=O)O (centres undefined) — higher, 141 to 143 °C
- COC(=O)C(=O)CC(=O)c1ccc(C2CCCCC2)cc1 — higher, 96 to 98 °C
- O=C1CC[C@@H](CI)N1Cc1ccccc1 — higher, 92 to 94 °C
- COc1cc(OC)nc(NC(=O)NS(=O)(=O)c2cccnc2-n2cncn2)n1 — higher, 226 to 230 °C
- Cc1nc(-n2ccc(OCc3ccc(F)cc3)cc2=O)sc1C(=O)NCc1ccc(F)cc1 — higher, 249 to 251 °C
- COC(=O)Nc1nc2c(C(C)C)cc(SC3=C(O)C[C@@](CCc4ccc(O)cc4)(C(C)C)OC3=O)c(C)c2s1 — higher, 150 to 151 °C
- N#CCOC(=O)c1ccc(CNC(=O)CCCCCN2C(=O)C=CC2=O)cc1O — higher, 141 to 144 °C
- Cc1ccc(-c2cc(N3CCCCC3)c(C#N)c3c2-c2ccccc2C3=O)cc1 — higher, 230 to 232 °C
- O=c1[nH]c(-c2ccc(F)cc2)c(CCCl)s1 — higher, 138 °C
- CCC(C)c1ccc(-n2c(-c3cc(C)c(OCCO)c(C)c3)nc3ccc(S(C)(=O)=O)cc3c2=O)cc1 (centres undefined) — higher, 259 to 260 °C
- CCNC(=O)c1c([Si](C)(C)C)ccc(C(C)=O)c1Cl — higher, 78 to 80 °C
- CCCCCCC1(Br)CC(=CNc2ccccc2)OC1=O (centres undefined) — higher, 147 to 148 °C
- N=C(NN)c1ccccc1C(=N)NN — higher, 251 to 253 °C
- Cc1cc(C)nc(-n2cnc(N)n2)n1 — higher, 235 to 238 °C
- N#CCC1NC(=O)C(Cc2ccccc2)NC1=O (centres undefined) — higher, 255 to 256 °C
- COc1cc(OC)c2nccc(O)c2c1 — higher, 221 to 224 °C
- O=c1c(CCl)coc2c1COc1ccccc1-2 — higher, 163 to 165 °C
- Cn1cc(C2=C(c3cn4c5c(cccc35)CCC4CCO)C(=O)NC2=O)c2ccccc21 (centres undefined) — higher, 214 to 215 °C
- NC(=NO)c1ccc(-c2ccc(Cl)cc2)o1 — higher, 167 to 169 °C
- CC(Cc1cc(C(C)(C)C)c(O)c(C(C)(C)C)c1)C(=O)Oc1ccc(C(=O)c2cc(C(C)(C)C)c(O)c(C(C)(C)C)c2)c(O)c1 (centres undefined) — higher, 163 to 165 °C
- CCCCc1nn(CC#N)c(=O)n1Cc1ccc(-c2ccccc2-c2nnn[nH]2)cc1 — higher, 86 to 88 °C
- CN(Cc1ncco1)C1CCCN(C(=O)c2ccc(Nc3nccc(Nc4ccc(F)cc4)n3)cc2)C1 (centres undefined) — higher, 155 to 157 °C
- COc1cc(C(=O)c2ccc(N)c(C(=O)O)c2)n2ccccc12 — higher, 106 °C
- CCC1Nc2c(cc(C)nc2C)N1c1ccc(CCNC(=O)NS(=O)(=O)c2ccc(C)cc2)cc1 (centres undefined) — higher, 143 °C
- COc1nc2ncnc(NCC=C(C)C)c2[nH]1 — higher, 205 to 210 °C
- COC(=O)C(CC(C)C)NC(=O)C(C)NC(=O)OCc1ccccc1 (centres undefined) — lower, 65 to 68 °C
- O=C(O)c1cccc2ncc(C3CCCCC3)cc12 — higher, > 280 °C
- COC(=O)Cc1ccc2nc(Nc3ccccc3C)oc2c1 — higher, 128 to 129 °C
- O=Cc1cn(Cc2ccc(OCc3csc(-c4ccccc4)n3)cc2)nc1-c1cccs1 — higher, 115 to 116 °C
- CC(C)(C)OC(=O)NCCNC(=O)c1n[nH]cc1-c1cccc(F)c1 — higher, 175 to 176 °C
- COC(=O)c1cc(OCCCCCCOc2ccc(-c3ccccc3)cc2)ccc1OCc1ccccc1 — higher, 85 to 87 °C
- CCn1c(=O)c2[nH]c(/C=C/c3ccc(OC)c(C)c3)nc2n(CC)c1=O — higher, > 270 °C
- CN1C(=O)c2c(F)c(F)c(F)c(F)c2C1=O — higher, 132 °C
- CCCn1c(=O)c2c(nc(/C=C/c3cccs3)n2C)n(CCC)c1=O — higher, 185 to 186 °C
- CCCCCCc1cc2c(s1)-n1c(C)nnc1CN=C2c1cc(C)ccc1C — higher, 81 to 84 °C
- COc1ccc(Cl)cc1C1(F)C(=O)Nc2ccc(Br)cc21 (centres undefined) — higher, 206 to 208 °C
- CC1CN(c2ccc([N+](=O)[O-])cc2)CC(C)N1 (centres undefined) — higher, 124 to 125 °C
- CC1=NC(NC(=O)Nc2cccc(C)c2)C(=O)N(CC(=O)C2CCCCCCC2)c2c(C)cccc21 (centres undefined) — higher, 163 to 164 °C
